From PubChem BioAssay (NCI)
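1) Cells in 96-well plates. 2) Compound, 48 h, 5 concentrations. 3) Linear interpolation between surrounding doses. 4) Unreached endpoint = highest concentration. At the GI50, growth is halved. At the TGI there is no net growth.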

How the values were obtained:
Assay in all cases: inhibition of tumour cell growth, NCI panel, 48 h
[1] = system: A549 NSCLC
[2] = system: MCF7 breast
[3] = system: DU-145 prostate
[4] = system: 786-0 renal
[5] = system: SF-268 CNS
[6] = system: NCI-H522 lung
[7] = system: OVCAR-3 ovarian
[8] = system: HT29 colon
[9] = system: NCI-H23 lung
[10] = system: OVCAR-4 ovarian

SMILES	GI50 [1]	TGI [1]	GI50 [2]	TGI [2]	GI50 [3]	TGI [3]	GI50 [4]	TGI [4]	GI50 [5]	TGI [5]	GI50 [6]	TGI [6]	GI50 [7]	TGI [7]	GI50 [8]	TGI [8]	GI50 [9]	TGI [9]	GI50 [10]	TGI [10]
O=S(=O)(NCCCNc1cc(-c2cn(-c3ccccc3)nc2-c2cccc(O)c2)ccn1)c1ccc(Cl)cc1	2.64 µM	10.1 µM	1.84 µM	5.01 µM	2.33 µM	7.58 µM	1.56 µM	4.19 µM	1.55 µM	5.18 µM	1.88 µM	4.06 µM	1.67 µM	3.7 µM	0.471 µM	1.7 µM	1.64 µM	4.98 µM	1.67 µM	5.92 µM
CC1(C)OC(=O)C(=C2CC(c3ccccc3)c3ccccc32)C(=O)O1 (stereo not drawn)		> 100 µM						> 100 µM		> 100 µM		> 100 µM		> 100 µM		> 100 µM		> 100 µM		> 100 µM
CCCCCCCCCC(CCCC(O)CC(=O)O)OC1OC(COC2OC(C)C(O)C(O)C2O)C(O)C(O)C1OC1OC(CO)C(O)C(O)C1OC1OC(C)C(O)C(O)C1O (stereo not drawn)	> 40 µM	> 40 µM	> 40 µM	> 40 µM	> 40 µM	> 40 µM	> 40 µM	> 40 µM	> 40 µM	> 40 µM	> 40 µM	> 40 µM	> 40 µM	> 40 µM	> 40 µM	> 40 µM	> 40 µM	> 40 µM	> 40 µM	> 40 µM
CN(C)/C(N)=N/C(N)=S		> 100 µM						> 100 µM		> 100 µM		> 100 µM		> 100 µM		> 100 µM		> 100 µM		> 100 µM
CCCN1CCN(c2ccc3nc(-c4ccc5nc(-c6ccc(OCC)c(OCC)c6)[nH]c5c4)[nH]c3c2)CC1	0.808 µM	2.35 µM			0.436 µM	1.75 µM	0.986 µM	2.33 µM	1.6 µM	6.1 µM			0.258 µM	0.622 µM	0.294 µM	1.66 µM	0.251 µM	0.765 µM	0.449 µM	1.84 µM
Cc1ccc(C2=C(c3ccccc3)C(O)(c3ccc(C)cc3)C(c3ccccc3)=C2c2ccc(C)cc2)cc1		> 100 µM						> 100 µM		> 100 µM				> 100 µM				40.2 µM		> 100 µM
COC(=O)NN1C(C)=C(C(=O)OC)C2(CCOC2=O)C1(C)O (stereo not drawn)		> 100 µM						> 100 µM		> 100 µM		> 100 µM		> 100 µM		> 100 µM		> 100 µM		> 100 µM
COc1cc(-c2cc(CCC(=O)Nc3ccccc3[N+](=O)[O-])n(-c3ccc([N+](=O)[O-])cc3[N+](=O)[O-])n2)ccc1O	> 100 µM	> 100 µM					> 100 µM	> 100 µM	> 100 µM	> 100 µM	> 100 µM	> 100 µM		> 10 µM		> 10 µM	> 100 µM	> 100 µM	> 100 µM	> 100 µM
COc1ccc(/C(C)=N/NC(N)=S)c(OC)c1		> 100 µM						> 100 µM		> 100 µM		62.3 µM		> 100 µM		> 100 µM		> 100 µM		
COc1ccc(C(=O)O)c(Cc2ccc3ccccc3c2)c1		> 100 µM						> 100 µM		> 100 µM		> 100 µM		> 100 µM		> 100 µM		> 100 µM		> 100 µM
C/C(=N\NC(=O)c1ccncc1)c1ccc(O)cc1O	5.87 µM	> 100 µM	4.92 µM	> 100 µM	3.63 µM	> 100 µM	5.84 µM	> 100 µM	2.19 µM	> 100 µM			4.59 µM	> 100 µM	8.09 µM	> 100 µM	11.4 µM	> 100 µM	2.68 µM	> 100 µM
CC1=C(c2cc(C(=O)Nc3nccs3)nc(NC#N)n2)Sc2ccccc2N1		> 100 µM						> 100 µM		> 100 µM		> 100 µM		> 100 µM		> 100 µM		> 100 µM		> 100 µM
CN(C)CCC1(C2=CCCC2)CC/C(=C\c2ccccc2)C1=O (stereo not drawn)		41.9 µM						27.8 µM		42.2 µM		27.4 µM		28.5 µM		34.4 µM		46.9 µM		31 µM
CC(Oc1ccc2cc(C(=O)c3ccccc3)c(=O)oc2c1)C(=O)O (stereo not drawn)		> 100 µM						> 100 µM		> 100 µM		> 100 µM		> 100 µM		> 100 µM		> 100 µM		> 100 µM
CCC(/C(=N\Nc1c(Cl)cc(Cl)cc1Cl)c1ccccc1)n1ccnc1C (stereo not drawn)		38.1 µM						25.6 µM		47.2 µM		18.1 µM		18.8 µM		21.4 µM		25.3 µM		30 µM
O=C([O-])c1ccccc1Nc1ccccc1[O-].[Ni+3].[OH3+].[OH3+].[OH3+]	> 100 µM	> 100 µM					> 100 µM	> 100 µM	> 100 µM	> 100 µM	> 100 µM	> 100 µM	> 100 µM	> 100 µM	> 100 µM	> 100 µM	> 100 µM	> 100 µM	> 100 µM	> 100 µM
CC(C)CC(=O)NS(=O)(=O)c1ccccc1		> 100 µM						> 100 µM		> 100 µM		> 100 µM		> 100 µM		> 100 µM		> 100 µM		> 100 µM
CCN(CC)CC(O)C1CCC(c2ccccc2)CC1 (stereo not drawn)		> 100 µM		84.6 µM		> 100 µM		47.6 µM		> 100 µM		43.1 µM		> 100 µM		47.7 µM		> 100 µM		
